Measured values from ChEMBL document CHEMBL1153254, “Vasorelaxant activity of 2-substituted 6-nitro-2H-1-benzopyran-4-carbothioamide K+ channel openers” (Bioorg Med Chem Lett, 1993).
pEC50: −log10 of the molar value.

Assays:
[1] = organism: Rattus norvegicus; assay: Intrinsic activity in rat isolated aorta; format: functional
[2] = organism: Rattus norvegicus; assay: Negative logarithm of the molar concentration required to relax rat aorta precontracted with 30 mM KCl by 50% of intrinsic activity; format: functional; settings: for pEC50: Rattus norvegicus, Aorta

Compound	pEC50 [2]	Log EC50 [2]	IA [1] [%]
C/N=C(/S)C1=CC2(Oc3ccc([N+](=O)[O-])cc31)C1CC3CC(C1)CC2C3 (stereo unspecified)	6.39		87.9
C/N=C(/S)C1c2cc([N+](=O)[O-])ccc2OC(C)(C)C1O (stereo in doubt; cis)		-6.96	57.9
CC(N/C(=N\C#N)Nc1ccncc1)C(C)(C)C (stereo unspecified) [PINACIDIL ANHYDROUS]			91.9
C/N=C(/S)C1=C(O)C(C)(C)Oc2ccc([N+](=O)[O-])cc21	5.95		93.9
C/N=C(/S)C1=CC(C(C)(C)C)Oc2ccc([N+](=O)[O-])cc21 (stereo unspecified)	9.40		71.7
CCC1C=C(/C(S)=N\C)c2cc([N+](=O)[O-])ccc2O1 (stereo unspecified)	< 4.50		
C/N=C(/S)C1=CC(C)(C)Oc2ccc([N+](=O)[O-])cc21			63.5
CC1(C)Oc2ccc(C#N)cc2[C@@H](N2CCCC2=O)[C@@H]1O [CROMAKALIM]			74.7
C/N=C(/S)C1c2cc([N+](=O)[O-])ccc2OC(C)(C)C1O (stereo in doubt; trans)		-6.58	73.2
CCCCC1(C)C=C(/C(S)=N\C)c2cc([N+](=O)[O-])ccc2O1 (stereo unspecified)	7.39		66.5
C/N=C(/S)C1=CC(C)(C)Oc2ccc(C#N)cc21			89

More lines, main results first:

pEC50 [2]	Log EC50 [2]	Compound	IA [1] [%]
10.77		CCCC1(C)C=C(/C(S)=N\C)c2cc([N+](=O)[O-])ccc2O1 (stereo unspecified)	62.6
9.95		C/N=C(/S)C1=CC2(CCCCC2)Oc2ccc([N+](=O)[O-])cc21	77.6
10.60		C/N=C(/S)C1=CC2(CCCC2)Oc2ccc([N+](=O)[O-])cc21	77.7
7.32		C/N=C(/S)C1=CC2(CCCCCC2)Oc2ccc([N+](=O)[O-])cc21	61.5
9.74		CCC1(C)C=C(/C(S)=N\C)c2cc([N+](=O)[O-])ccc2O1 (stereo unspecified)	75.1
10.68		C/N=C(/S)C1=CC2(CCC2)Oc2ccc([N+](=O)[O-])cc21	68.2
9.43		CCC1(CC)C=C(/C(S)=N\C)c2cc([N+](=O)[O-])ccc2O1	70.3
